# “Also recorded” adds a separate entry of the source. Where two headings read alike, the source gives them in different places.
# Assays:
# fibroblast monolayers [1] = test: Cellular cholesterol mass (FC, EC, total); type: cell-based, human; conditions: +NEM 2 mM; increase over 120 min, 37° C.
# Experimental: The FC and EC mass of cell monolayers was determined before and after incubation with lipoprotein as described above. Portions of the chloroform phase were analyzed for total and free cholesterol. Except where indicated each data point represents the mean of triplicate dishes. The coefficient of variation was <5% of means in these experiments.
# 120 min. at 37° C. Initial cell FC was […].
# [2] = system: LDL FC uptake by fibroblast monolayers; test: Effects of metabolic inhibitors on uptake of 3H-cholesterol from LDL (Example 1)
# vesicular transport = conditions: assays of vesicular transport in vitro; cited from earlier work
# [3] = system: intracellular FC transport to the cell surface in fibroblast monolayers; test: Transfer of intracellular 3H-FC to the cell surface (cholesterol oxidase); type: cell-based, human; conditions: in words
# Experimental: This assay utilized the finding (see Example 1) that only FC in the caveolar fraction of the plasma membrane fraction was modified by cholesterol oxidase in unfixed fibroblast monolayers.
# The rate at which intracellular LDL-derived ^3 H-FC became accessible at the cell surface was measured as follows. Cell monolayers were labeled with ^3 H-FC LDL under the conditions shown for each experiment. Unbound and adsorbed LDL were removed as described above. In some experiments metabolic inhibitors of different transport steps were then added for 30 min at 15° C. […] Cholesterol oxidase (Boehringer-Manheim, Indianapolis, Ind., USA) was added in PBS to a final concentration of 1 U ml^-1. Incubation was for 4 h at 0° C. The cells were washed with ice-cold PBS, and extracted with 0.1 N NAOH. Cell total lipid was extracted with chloroform-methanol (1:1 v/v). […] .
# Fibroblast monolayers were prelabeled with FC-labeled LDL for 2 min at 31° C. Medium and surface-bound labeled LDL were removed as described above. The cells were incubated with inhibitors of intracellular transport for 30 min at 15° C. Movement of FC label to the cell surface remained negligible (FIG. 11). The cells were brought to 31° C. for 15 min, and then cooled on wet ice. ^3 H-FC transfer to the cell surface (in the presence and absence of inhibitor) was assayed with cholesterol oxidase as described above.
# fibroblast monolayers [4] = test: FC efflux from fibroblast monolayers (3H-FC label); type: cell-based, human
# Experimental: Fibroblast monolayers were equilibrated with ^3 H-FC-labeled native plasma or with isolated ^3 H-labeled LDL, as specified for each experiment. Following incubation, the dishes were washed with albumin-complete PBS and then (×4) with complete PBS. They were then incubated for 3 min with unlabeled plasma or lipoprotein fractions and the rate of appearance of radioactivity in the medium determined. Samples of medium ([…]) were immediately chilled in ice water and centrifuged (10 min, 2000×g) at 0-2° C. ^3 H-cholesterol radioactivity in the supernatant was either assayed directly, or fractionated by agarose gel electrophoresis. FC efflux was linear as previously reported (Kawano et al., Biochemistry, 32: 5025-5028 (1993)).
# For electrophoresis, […] portions of labeled medium were added to strips of 0.75% w/v agarose in 0.025 M barbital buffer (pH 8.6) and separated as previously described (Fielding et al., Biochemistry, 30: 8551-8557 (1991)). 2.5 mm gel fractions were then collected, and radioactivity measured. The location of major lipoprotein classes was determined from strips run simultaneously with whole native plasma equilibrated (60 min, 37° C.) With ^3 HFC.
# Rates of FC influx and efflux between medium and fibroblast monolayers preincubated for 24 h with 7-80% native human plasma in DMEM were determined. Cells equilibrated in 80% compared to 7% v/v plasma contained 35-40% more total cholesterol but only 10-15% more FC. In 50% v/v plasma, cholesteryl ester levels were lower than in 80% plasma but FC levels were almost the same. Rates of transfer of FC between the cells and their extracellular medium were determined for each plasma dilution. […] was measured as the rate of transfer of ^3 H-FC radioactivity from labeled native plasma to unlabeled cells. […] was determined as the rate of transfer of radioactivity from uniformly labeled cells to unlabeled native plasma medium.
# [5] = system: LDL FC uptake by fibroblast monolayers; test: Transfer of LDL-derived 3H-FC into fibroblast monolayers with metabolic inhibitors (Example 2); type: cell-based, human; conditions: brefeldin A, vinblastine, taxol, nocodazole; NEM 2 mM
# [6] = system: intracellular FC vesicle fractions of fibroblast monolayers; test: D2O-Ficoll density gradient fractionation of LDL-derived 3H-FC vesicles; type: cell-based, human; conditions: NEM 2 mM
# Experimental: Early endosomal vesicles were labeled with LDL-derived ^3 H-FC by a modification of procedures described by Woodman & Warren (1991) J. Cell Biol., 112:1133-1141. Fibroblast monolayers in 10 cm dishes were washed in ice-cold PBS. The cells were labeled by incubation (2 h, 4° C.) with ^3 H-FC LDL. The monolayers were washed in PBS and brought to 31° C. for 0-15 min. The cells were then quickly chilled on ice, and cold unlabeled LDL was added (15 min, 4° C.) to displace any remaining surface-bound labeled LDL and all subsequent steps were carried out at 0-4° C.
# Cells from three 10 cm dishes were used for each gradient. Monolayers were washed with 140 mM sucrose, 0.5 mM MgCl2, 1 mM EGTA, 20 mM 2-[N-morpholino]ethanesulfonic acid (MES), 70 mM potassium acetate, pH 6.6 (`vesicle buffer`) (Woodman & Warren, supra.). […] Fractions (~0.6 ml) were collected dropwise and the distribution of FC label determined. […] Solution density was determined gravimetrically using […] portions of each fraction. […]
# The identity of intracellular transport intermediates and the extent of any cross-contamination between fractions was established using specific antibodies to protein markers, labeled ligands of receptor proteins, and assays of enzyme proteins. […] The distribution of antigen between different gradient fractions was determined with a computerized scanner (ImageQuant, Molecular Devices, Sunnyvale, Calif., USA).
# fibroblasts = conditions: fibroblast monolayers; cited from earlier work
# [7] = system: human hepatoblastoma (HepG2) cells; conditions: cited from earlier work
# caveolin mRNA [8] = conditions: literature; cited from earlier work
# [9] = system: LDL FC uptake by fibroblast monolayers; conditions: in words
# caveolin promoter = test: Luciferase expression driven by caveolin promoter (pGL3); type: cell-based; conditions: Homo sapiens, Skin fibroblast, 3 h; 50 μM cholesterol α-epoxide, 80% v/v plasma; read-out: reduction of luciferase expression
# From the text: The pGL3 luciferase vector (Promega, Madison, Wis.) was used for cloning purposes. A 705 bp Bgl II restriction fragment corresponding to -781 to -76 bp (relative to the translational start site) was isolated from the 4 kb genomic fragment described above. This was subcloned into the Bgl II site of the vector. The orientation of the insert was identified by restriction mapping and DNA sequencing.
# Mutations of sequences within the promoter were created by deletional mutagenesis on single strand DNA, using the Sculptor mutagenesis kit (Amersham). On the basis of the caveolin gene promoter sequence, three oligonucleotides were designed: i) from -664 to -620 with bases -646 to -637 deleted; ii) from -412 to -363 with bases -395 to -386 deleted; and iii) from -302 to -262 with bases -287 to -278 deleted. These were used to generate the promoter mutants designated Δ1, Δ2 and Δ3 respectively.
# Normal skin fibroblasts were plated at a density of 5-8×10^5 cells per 6 cm dish. These cells were transfected with 10 μg per dish of the wild type (705 bp) caveolin promoter fragment subcloned in the forward and reverse orientation in the luciferase expression vector pGL3. […] After 10-20 sec, luciferase activity was determined using an analytical luminometer (Monolight 2010, Analytical Luminescence Laboratories, San Diego, Calif.).
# caveolin mRNA [10] = test: Caveolin mRNA levels (Northern blot); conditions: 80% v/v plasma + 50 μM cholesterol α-epoxide, 8 h with actinomycin, 37° C.
smiles,measurement,setting,value
CCN1C(=O)C=CC1=O [N-ethylmaleimide],D total cholesterol,fibroblast monolayers [1],0.4 ± 0.2 Fg dish^-1
same,inhibition of the uptake of free cholesterol from LDLs,[2]; FIG. 8,> 80%
same,time course of inhibition of LDL FC uptake,"[2]; NEM: first 10-15 min, KNO3: 50 mM, data not shown",no effect
same,time to complete inhibition,[2]; cells prelabeled to equilibrium (24 h) with 3H-FC,≤ 30 min
same,inhibition of the uptake of 3H-FC from LDL,"[2]; preincubated 30 min with NEM, incubation beyond 10-15 min, FIG. 8",> 80%
same,concentration for maximal inhibition,vesicular transport,1 mM
same,effect on transport of intracellular 3H-FC to the cell surface,[3],"inhibited the return of FC to the cell surface, but less effectively than did nocodazole"
same,Lipoprotein-resistant label,"fibroblast monolayers [4]; +NEM 2 mM, proportion retained after 80% v/v plasma-PBS, 10 min, 37° C.",0.24 ± 0.03
same,initial rate of efflux of FC from prelabeled cells to plasma,"fibroblast monolayers [4]; in words, listed as NEM",increased rate of efflux; also recorded: increased several-fold
same,effect on uptake of 3H-FC from LDL,[5],blocks selective uptake of FC from LDL
same,FC label with clathrin at d 1.12 g ml^-1,[6],no peak of FC label was present with clathrin at d 1.12 g ml^-1
CC(=O)[C@H]1CC[C@H]2[C@@H]3CCC4=CC(=O)CC[C@]4(C)[C@H]3CC[C@]12C [Progesterone],transport of FC between the TGN and cell surface,fibroblasts,inhibited FC transport between the TGN and cell surface
same,effect on LDL FC uptake,[2]; in words,without effect
same,effect on transfer of FC from plasma membrane to cell interior,[7],promoted the transfer of FC from the plasma membrane to the interior of the cell
same,effect on caveolin mRNA levels,caveolin mRNA [8],reduced equilibrium caveolin mRNA levels
same,effect on LDL FC uptake,[9],no effect
CC(C)CCC[C@@H](C)[C@H]1CC[C@H]2[C@@H]3CC4OC45C[C@@H](O)CC[C@]5(C)[C@H]3CC[C@]12C (stereo partly drawn) [cholesterol α-epoxide],inhibition at 50 µM,caveolin promoter,60%
same,caveolin mRNA level relative to total RNA,caveolin mRNA [10],0.47
